Patent US12655126B2, “Imidazole-pyrazole derivatives as antibacterials” (Hoffmann-La Roche Inc., priority 2020, dated 2026)
Where two headings read alike, the source gives them in different places.

Test system: Acinetobacter baumannii ATCC17961
Test: Antimicrobial susceptibility testing: 90% growth inhibitory concentration (IC90) determination
Type: cell-based
Details: read-out: ATCC 17961 IC90
Method in brief: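 Broth microdilution in Iso-Sensitest medium with twofold dilutions (e.g. 50 to 0.097 μM final) and inoculum ~5×10^(5) CFU/ml, 35±2 °C. OD600 was followed for 16 h; IC90 was derived from inhibition during logarithmic growth.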

[1] = Acinetobacter baumannii, ATCC17961, 16 h
[2] = Acinetobacter baumannii ATCC17961, Iso-Sensitest broth, growth by OD 600 nm over 16 h, 90% growth inhibitory concentration

**Q.** With Cn1c(-c2cn(-c3ccc(N)nn3)nc2C(F)(F)F)cnc1C(=O)Nc1ccc(C(=O)N2CCN(C(=O)C3CC[N+](C)(C)CC3)CC2)c(Cl)c1 [Example K1, 5-[1-(6-Aminopyridazin-3-yl)-3-(trifluoromethyl)pyrazol-4-yl]-N-[3-chloro-4-[4-(1,1-dimethylpiperidin-1-ium-4-carbonyl)piperazine-1-carbonyl]phenyl]-1-methyl-imidazole-2-carboxamide; 2,2,2-trifluoroacetate] as the compound, how does the IC90 [1] read?
**A.** 1600 nM

**Q.** Cc1c[nH]nc1-n1cc(-c2cnc(C(=O)Nc3ccc(C(=O)N4CCN(C(=O)C5CC[N+](C)(C)CC5)CC4)c(Cl)c3)n2C)c(C(F)(F)F)n1 [Example K2, N-[3-chloro-4-[4-(1,1-dimethylpiperidin-1-ium-4-carbonyl)piperazine-1-carbonyl]phenyl]-1-methyl-5-[1-(4-methyl-1H-pyrazol-3-yl)-3-(trifluoromethyl)pyrazol-4-yl]imidazole-2-carboxamide; 2,2,2-trifluoroacetate] was tested. Which IC90 [2] did it give?
**A.** 4360 nM

**Q.** With COCc1c[nH]nc1-n1cc(-c2cnc(C(=O)Nc3ccc(C(=O)N4CCN(C(=O)C5CC[N+](C)(C)CC5)CC4)c(Cl)c3)n2C)c(C(F)(F)F)n1 [Example K3, N-[3-chloro-4-[4-(1,1-dimethylpiperidin-1-ium-4-carbonyl)piperazine-1-carbonyl]phenyl]-5-[1-[4-(methoxymethyl)-1H-pyrazol-3-yl]-3-(trifluoromethyl)pyrazol-4-yl]-1-methyl-imidazole-2-carboxamide] as the compound, how does the IC90 [2] read?
**A.** 1300 nM

**Q.** Which IC90 [2] does the source give for CNC(=O)CCNc1ccc(-n2cc(-c3cnc(C(=O)Nc4ccc(C(=O)N5CCN(C(=O)C6CC[N+](C)(C)CC6)CC5)c(Cl)c4)n3C)c(C(F)(F)F)n2)nc1 [Example L2, N-[3-chloro-4-[4-(1,1-dimethylpiperidin-1-ium-4-carbonyl)piperazine-1-carbonyl]phenyl]-5-[1-[5-[[3-keto-3-(methylamino)propyl]amino]-2-pyridyl]-3-(trifluoromethyl)pyrazol-4-yl]-1-methyl-imidazole-2-carboxamide] here?
**A.** 330 nM

**Q.** For Cn1c(-c2cn(-c3ccc(NCCN)cn3)nc2C(F)(F)F)cnc1C(=O)Nc1ccc(C(=O)N2CCN(C(=O)C3CC[N+](C)(C)CC3)CC2)c(Cl)c1 [Example M1, 5-[1-[5-(2-aminoethylamino)-2-pyridyl]-3-(trifluoromethyl)pyrazol-4-yl]-N-[3-chloro-4-[4-(1,1-dimethylpiperidin-1-ium-4-carbonyl)piperazine-1-carbonyl]phenyl]-1-methyl-imidazole-2-carboxamide; 2,2,2-trifluoroacetic acid; 2,2,2-trifluoroacetate], which IC90 [1] is on record?
**A.** 100 nM
